Experimental data from the NIST ThermoML archive (doi:10.1016/j.jct.2007.03.002).
Values joined by “and” are separate entries in the source; they are usually repeats but may differ in a detail not shown here. Identical values can stand only once. Numbers after ± are expanded uncertainties.

How the values were obtained:
[1] = Crystal; for vapor or sublimation pressure: Calculated from knudsen effusion weight loss; for Normal melting temperature: DTA
[2] = Molar enthalpy of transition or fusion; conditions: Crystal; DSC
[3] = molar heat capacity at constant pressure; conditions: 298.15 K; 101.33 kPa; Crystal; Drop calorimetry
[4] = molar enthalpy of vaporization or sublimation; conditions: 298.15 K; Crystal; Static calorimetry

OCc1ccccc1-c1ccccc1 [2-biphenylmethanol]
vapor or sublimation pressure ([1]; 313 K): 0.0001171 ± 3.5e-05 kPa and 0.0001179 ± 3.6e-05 kPa
vapor or sublimation pressure ([1]; 316 K): 0.0001736 ± 5.2e-05 kPa
vapor or sublimation pressure ([1]; 319 K): 0.0002555 ± 7.7e-05 kPa and 0.0002537 ± 7.7e-05 kPa
vapor or sublimation pressure ([1]; 322 K): 0.0003732 ± 0.00011 kPa and 0.0003682 ± 0.00011 kPa
Normal melting temperature [1]: 49.2 ± 0.7 °C
Molar enthalpy of transition or fusion [2]: 4.71 ± 0.12 kcal/mol
molar heat capacity at constant pressure [3]: 268.98 ± 22 J/K/mol
molar enthalpy [4]: 25.6 ± 0.311 kcal/mol

OCc1ccc(-c2ccccc2)cc1 [4-biphenylmethanol]
mass density ([1]; 298.15 K, 101.33 kPa, mass and size of pellet): 1390 ± 360 kg/m3
Normal melting temperature [1]: 100.6 ± 0.7 °C
Molar enthalpy of transition or fusion [2]: 6.45 ± 0.143 kcal/mol
molar heat capacity at constant pressure [3]: 256.08 ± 66 J/K/mol
molar enthalpy [4]: 25.6 ± 0.86 kcal/mol
